Measurements: US20240197911A1, “Oral Pharmaceutical Composition, Method for Fabricating Thereof, and Kit for Treating Cancer” (National Tsing Hua University, priority 2022, published 2024)

Tests used:
[1] = test system: RAW264.7 cells; experiment: Cytotoxicity on Mφ; format: cell-based, murine; conditions: different DOX concentrations, 24 hours
Method: The capacity of Mφ as a hitchhiking vehicle is strongly correlated with their viability following the uptake of drug-encapsulated particles. Therefore, the cytotoxicity of Example 1 on Mφ are further evaluated. The RAW264.7 cells are incubated with Comparative Example or Example 1 including different DOX concentrations for 24 hours, and the RAW264.7 cells treated with the same concentration of free DOX are used as Control (represents as “DOX”).

[2] = test system: RAW264.7 cells; experiment: Cellular uptake and trafficking by Mφ in vitro (CLSM); format: cell-based, murine; conditions: 10 μg/mL DOX
Method: To investigate whether the oral pharmaceutical composition of the present disclosure can be phagocytosed and carried by Mφ, the cellular uptake and trafficking of free DOX, Comparative Example or Example 1 by Mφ in vitro are observed first. RAW264.7 cells, a murine Mφ cell line, are seeded in an eight-well chamber slide (ibidi) at a density of 5×10^4 cells per well and incubated overnight. The cells are then treated with each of the test samples at an equivalent dose of DOX (10 μg/mL). Following incubation for pre-determined periods (0, 2, 4, and 6 hours), test cells are washed with Dulbecco's phosphate-buffered saline (DPBS) and stained with LysoTracker™ Deep Red (Invitrogen) and Hoechst 33342 (Abcam) for 30 minutes in the incubator. The stained cells are then examined using confocal laser scanning microscopy (CLSM) (LSM 780, Carl Zeiss) to track the localization and accumulation of free DOX, the DOX fluorescent signal of Comparative Example or Example 1, and to determine the cell regulation process of free DOX, Comparative example and Example 1 in the RAW264.7 cells.

[3] = test system: orthotopic PDAC mice; experiment: Antitumor efficacy of different treatments; format: in vivo
From the text: To evaluate the antitumor efficacy of different treatments, the orthotopic PDAC mice are randomly assigned to the following groups: untreated control group (hereinafter referred to as “Control”), orally administered β-glucan group (hereinafter referred to as “βGlus”), intravenous injected DOX group (hereinafter referred to as “DOX”), orally administered Comparative Example group (hereinafter referred to as “Comparative Example”), and orally administered Example 1 group (hereinafter referred to as “Example 1”). In the groups of DOX, Comparative Example and Example 1, the DOX content of each dose is 10 mg/kg, while in the groups of βGlus and Example 1, the content of β-glucan of each dose is 40 mg/kg. The body weight changes of the orthotopic PDAC mice are recorded every other day. On day 21, the orthotopic PDAC mice are euthanized and their tumors are retrieved for analysis.

SMILES: COc1cccc2c1C(=O)c1c(O)c3c(c(O)c1C2=O)C[C@@](O)(C(=O)CO)C[C@@H]3O[C@H]1C[C@H](N)[C@H](O)[C@H](C)O1 [DOX, doxorubicin]
- cell viability [1]: decreases substantially in a dose-dependent manner
- accumulation of DOX fluorescence in the cell nuclei [2]: accumulated in their nuclei
- tumor volume ([3]; day 21, three doses, DOX 10 mg/kg, β-glucan 40 mg/kg per dose, compared with Control): substantially reduces tumor volumes
- body weight ([3]; intravenous DOX 10 mg/kg per dose, P<0.05): serious loss of body weight
